{"source": "patent US11612601B1", "about": "“Targeting epidermal growth factor to treat vascular calcification” (THE FLORIDA INTERNATIONAL UNIVERSITY BOARD OF TRUSTEES, priority 2022, dated 2023)", "key": {"CKD mice": {"test_system": "CKD mice", "assay": "Chronic kidney disease and vascular calcification mouse model (OsteoSense calcium tracer in aorta)", "assay_type": "in vivo", "conditions": "for vascular calcification (calcium tracer OsteoSense visualization, aorta): daily oral gavage 10 mg/kg for two weeks, vs CKD vehicle, 10 mg/kg", "text": "The in vivo study was approved by the Institutional Animal Care and Use Committee (IACUC) at Florida International University under protocol AN20-006 and conformed to current NIH guidelines. 8-week-old wild type C57BL/6J mice (n=38, 19 per biological sex) were fed an adenine-supplemented diet (0.2%, TestDiet, Richmond, Ind.) for 6 weeks to induce severe kidney injury. The mice then received a diet containing 1.8% phosphate (TestDiet, Richmond, Ind.) and 0.2% adenine for an additional two weeks to induce medial calcinosis.\nAlong with this calcifying diet, a group of mice (n=19) received daily tyrphostin AG1478 (10 mg/kg mouse, Millipore Sigma, T4182) via oral gavage. The remaining mice (n=19) received vehicle treatment (1% w/v, carboxymethylcellulose sodium salt, Sigma, C5678). For non-diseased controls, a third group of mice (n=12, 6 per biological sex) were fed a regular chow diet and received the vehicle for the final two weeks. During the oral gavage, animals were partially anesthetized using isoflurane (1%, Patterson Veterinary, 07-893-1389, in 2 L.min^−1 oxygen flow). All animals received a tail vein injection with the calcium tracer OsteoSense 680EX (80 nmol/kg mouse, PerkinElmer, NEV10020EX) 48 hours prior to euthanization. At study endpoint, mice were anesthetized with isoflurane (1%, in 2 L.min^−1 oxygen flow) followed by retro-orbital bleeding for blood collection. Mice were then immediately euthanized by laceration of the diaphragm before tissue collection. After resection, the aortas were imaged using a near-infrared scanner (LI-COR Odyssey) to visualize the vascular calcification burden. A custom MATLAB script quantified the total area of the calcium tracer, which was normalized to the total scanned aorta area."}, "Osteoblasts (hFOB 1.19)": {"test_system": "Osteoblasts (hFOB 1.19)", "assay": "Osteoblast osteogenic gene expression, intracellular TNAP activity and CAV1", "assay_type": "cell-based, human", "conditions": "7 days", "procedure": "Osteoblasts (from human fetus, hFOB 1.19, ATCC, CRL-11372) were cultured and grown in DMEM containing 10% v/v bovine calf serum and 1% v/v penicillin-streptomycin. Osteoblasts (passage 4-6) were harvested using 0.25% trypsin-EDTA solution (Caisson Labs, TRL01), seeded with a density of 5,200 cell.cm^−2, and incubated for 24 hours at 37° C. and 5% CO2 with controlled humidity. The cells were treated in three groups of control, OS, and OS supplemented with tyrphostin AG1478 (2.5 μM) for 21 days and media changed every three days. […] Similar to the VSMC experiments, EV-free media were added to the cultures on days 6, 13, and 20, and collected 24 hours later on days 7, 14, and 21. Collected media were centrifuged at 1,000×g for 5 min to remove cell debris. EVs were isolated using the ultracentrifugation at 100,000×g for 1 hour.\nFollowing 7 or 14 days of treatment with control, OS, and OS plus EGFR inhibitor media, VSMCs and osteoblasts were lysed in 1 mL TRIzol solution (Invitrogen, 15596018). Total RNA was isolated according to the manufacturer's protocol. To perform the quantitative real time polymerase chain reaction (qRT-PCR), Power SYBR Green RNA-to-CT 1-Step Kit (Applied Biosystems, 4391178) was used. 50 ng isolated template RNA were added to each reaction for qRT-PCR. The results were normalized relative to Glyceraldehyde 3-phosphate dehydrogenase (GAPDH) expression level as the housekeeping control. The relative gene expression levels were calculated using comparative CT method, considering control groups as the reference.\nThe following human primer sequences were purchased from Integrated DNA Technologies (IDT); GAPDH Forward: […] (SEQ ID NO: 1) and Reverse: […] (SEQ ID NO: 2); RUNX2 Forward: […] (SEQ ID NO: 3) and Reverse: […] (SEQ ID NO: 4); ALPL Forward: […] (SEQ ID NO: 5) and Reverse: […] (SEQ ID NO: 6); Osteocalcin Forward: TCACACTCCTCGCCCTATT (SEQ ID NO: 7) and Reverse: […] (SEQ ID NO: 8).\nTo assess the activity of intracellular tissue non-specific alkaline phosphatase (TNAP), a colorimetric assay kit (BioVision, K412) was used. VSMCs (n=3) after 14 days and osteoblasts (n=3) after 7 days, were lysed in 120 μL assay buffer. 80 μL of each sample were mixed with 50 μL of 5 mM pNPP solution and incubated for 60 min at 25° C. The colorimetric change resulting from the reaction was detected using a plate reader to measure absorbance at 405 nm. The results were normalized to the total protein for associated samples measured by a BCA protein assay (BioVision, K813).\nVSMCs, osteoblasts, isolated EVs (either from cells or mouse aortas), and matrix vesicles (from osteoblasts) were lysed in RIPA lysis and extraction buffer supplemented with protease inhibitor. After adding Laemmli SDS-sample buffer (1:4 v/v, Boston BioProducts, BP-110R) to each lysate, the samples were denatured at 100° C. for 10 min, loaded into 7.5-12% 1-mm SDS-PAGE gel (15 to 20 μg protein per lane), and run at 170 V. The proteins were then transferred to Trans-Blot turbo nitrocellulose membranes (BIO-RAD, 1704158) at 25 V for 7 min.\nTo quantify the total protein, the membranes were stained using 2% w/v Ponceau stain (Alfa Aesar, AAJ6074409) for 20 min, followed by one wash with 5% acetic acid and milliQ water for 5 min. After imaging, the intensity of each lane was measured in ImageJ for total protein normalization. Membranes were blocked with 5% w/v bovine serum albumin (HyClone, SH30574.01) in TBS-Tween (1×) for 1 hour. […]"}}, "data": [{"compound": "COc1cc2ncnc(Nc3cccc(Cl)c3)c2cc1OC", "note": "[AG1478, tyrphostin AG1478]", "values": [{"measurement": "Quantification of the OsteoSense intensity (vascular calcification)", "setting": "CKD mice; CKD mice, 10 mg/kg daily, two weeks, vs CKD, p≤0.001", "result": "significant reduction"}, {"measurement": "vascular calcification (calcium tracer OsteoSense visualization, aorta)", "setting": "CKD mice; CKD mice", "result": "reduced calcium burden"}, {"measurement": "vascular calcification (calcium tracer OsteoSense visualization, aorta)", "setting": "CKD mice; CKD mice, listed as EGFR inhibitor", "result": "dramatically reduced"}, {"measurement": "survival rate", "setting": "CKD mice; CKD mouse model", "result": 100, "unit": "%"}, {"measurement": "Gene expression of ALPL in osteoblasts", "setting": "Osteoblasts (hFOB 1.19); OS + 2.5 μM vs OS, p=0.9", "result": "no significant differences"}, {"measurement": "Gene expression of Osteocalcin (BGLAP) in osteoblasts", "setting": "Osteoblasts (hFOB 1.19); OS + 2.5 μM vs OS, p=0.9", "result": "no significant differences"}, {"measurement": "Gene expression of RUNX2 in osteoblasts", "setting": "Osteoblasts (hFOB 1.19); OS + 2.5 μM", "result": "downregulation"}, {"measurement": "intracellular TNAP activity in osteoblasts", "setting": "Osteoblasts (hFOB 1.19); OS + 2.5 μM", "result": "significantly increased"}, {"measurement": "intracellular CAV1 protein in osteoblasts", "setting": "Osteoblasts (hFOB 1.19); OS + 2.5 μM, compared to control group, p=0.01", "result": "significantly increased"}]}]}
